According to patent publication EP4775570A1, “CYP11A1 INHIBITOR, PREPARATION METHOD THEREFOR AND USE THEREOF” (Shenzhen Zhongge Biological Technology Co., Ltd., priority 2023, dated 2025):
pIC50: −log10 of the molar value.

How the values were obtained:
[1] = test system: testosterone, progesterone, corticosterone; assay: LC-MS detection of testosterone, progesterone and corticosterone in mouse tumors and adrenal glands; format: in vivo; settings: VCaP model; for secretion of testosterone, progesterone and corticosterone in tumors and adrenal glands (in words): mouse tumors and adrenal glands
Text: • Mouse tumors were homogenized using PBS in a 1:5 ratio (tumor weight (g): PBS volume (mL), w/v); • Mouse adrenal glands were homogenized using PBS in a 1:10 ratio (adrenal gland weight (g): PBS volume (mL), w/v); • Standard sample: testosterone (LGC, C17322500), progesterone (MCE, HY-N0437), adrenal ketone (MCE, HY-B1618), and standard solution of test substance.
Experiment procedures: since the three markers, i.e., testosterone, progesterone, and adrenal ketone, are all endogenous substances and present in the blank matrix as well, PBS was alternatively used as matrix in the production of the standard curve.
Testosterone: multiple reaction monitoring (MRM) method was used for detecting the concentrations of testosterone in mouse tumors and adrenal glands. Mass spectrum: AB Sciex Triple Quad 6500+; liquid chromatography: Shimadzu 40A, column: Waters XBridge BEH C18 2.5 µm 2.1*50mm, testosterone ion pair: 289.4/97.2. Both tumor and adrenal tissues were treated with methanol as precipitant and tolbutamide as internal standard for sample pretreatment, with linear range in 50-50,000pg/mL.
Progesterone and corticosterone: multi-reaction detection method (MRM) was used for detecting the concentrations of progesterone and corticosterone in mouse tumors and adrenal glands. Mass spectrum: AB Sciex Triple Quad 6500+; liquid chromatography: Shimadzu 40A, column: Waters XSelect HSS T3 2.5 µm 2.1*50mm, progesterone ion pair: 315.4/97.2, adrenone ion pair: 347.4/121.3. For tumor tissues, acetonitrile was used as precipitant and propranolol diclofenac as internal standard for sample pretreatment, with linear ranges in 0.05-10 ng/mL of progesterone and 0.10-20 ng/mL of corticosterone. For adrenal tissues, methanol was used as precipitant and propranolol diclofenac as internal standard for sample pretreatment, with linear ranges in 5-2,500 ng/mL of progesterone and 5-2,500 ng/mL of corticosterone.

hERG channels = biological target: T1, hERG channels (Homo sapiens, UniProt Q12809); assay: hERG testing, manual whole cell patch clamp; format: cell-based; settings: IC50, hERG tail current, room temperature (~25°C), 0.1-30 µM
T1 construct: host or cells: HEK293
T1 sequence (Q12809 whole entry): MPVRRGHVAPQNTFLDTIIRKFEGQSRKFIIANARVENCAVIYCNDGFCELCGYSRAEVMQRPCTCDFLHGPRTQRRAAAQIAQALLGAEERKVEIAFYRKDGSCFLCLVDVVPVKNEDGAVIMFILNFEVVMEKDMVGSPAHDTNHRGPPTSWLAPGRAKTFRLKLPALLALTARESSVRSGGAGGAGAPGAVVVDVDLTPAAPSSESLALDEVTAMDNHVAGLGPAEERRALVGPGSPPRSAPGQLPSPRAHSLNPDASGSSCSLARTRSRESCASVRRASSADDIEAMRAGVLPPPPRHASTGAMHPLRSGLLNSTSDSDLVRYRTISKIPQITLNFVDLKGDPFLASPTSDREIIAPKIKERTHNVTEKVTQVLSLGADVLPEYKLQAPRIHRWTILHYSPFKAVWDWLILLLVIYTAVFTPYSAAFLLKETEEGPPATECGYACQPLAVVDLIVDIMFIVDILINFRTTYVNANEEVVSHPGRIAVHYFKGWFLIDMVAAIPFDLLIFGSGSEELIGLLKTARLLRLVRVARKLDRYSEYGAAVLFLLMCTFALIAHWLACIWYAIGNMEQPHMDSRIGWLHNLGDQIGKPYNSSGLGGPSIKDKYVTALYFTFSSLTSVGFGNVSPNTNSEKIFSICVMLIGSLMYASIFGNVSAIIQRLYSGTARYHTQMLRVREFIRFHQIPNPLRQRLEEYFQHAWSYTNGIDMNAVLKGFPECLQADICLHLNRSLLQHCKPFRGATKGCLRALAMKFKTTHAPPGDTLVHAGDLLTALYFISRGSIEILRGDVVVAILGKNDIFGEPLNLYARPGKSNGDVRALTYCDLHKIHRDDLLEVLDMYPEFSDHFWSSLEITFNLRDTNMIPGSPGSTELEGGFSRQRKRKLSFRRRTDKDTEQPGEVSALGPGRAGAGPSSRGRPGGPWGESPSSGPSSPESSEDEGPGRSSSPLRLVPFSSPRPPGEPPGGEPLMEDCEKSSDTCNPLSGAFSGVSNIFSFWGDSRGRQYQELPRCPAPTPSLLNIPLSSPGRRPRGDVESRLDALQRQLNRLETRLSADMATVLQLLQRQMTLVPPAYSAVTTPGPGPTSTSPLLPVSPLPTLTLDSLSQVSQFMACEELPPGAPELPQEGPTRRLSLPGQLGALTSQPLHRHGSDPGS
Experimental: The cells used in this experiment were HEK293 cell lines transfected with hERG cDNA and stably expressing hERG channels (#60187, provided by BPS Bioscience Inc., P3-P23 generations were used in the experiment). The cells were cultured in a culture medium containing the following components: MEM medium, 10% (v/v) inactivated fetal bovine serum, 1 mM sodium pyruvate, 500µg/ml geneticin, 0.1mM non-essential amino acid, 100U/ml penicillin-streptomycin. HEK293 hERG cells were grown in petri dishes containing the aforementioned culture medium and cultured in an incubator at 37°C and 5% CO2, passaged approximately three times a week and maintained at a cell fusion rate between 40% and 80%. […]
The electrophysiological experiment was carried out using a manual patch clamp system (HEKA EPC-10 signal amplifier and digital conversion system, HEKA Electronics, Germany) to record the whole cell currents. […] Only when the hERG potassium current recorded in the previous step achieved stable state under continuous extracellular fluid perfusion within the recording chamber, could the compound to be tested be continuously perfused until the inhibitory effect of the compound on the hERG current reaches a stable state. […]

SMILES | concentration of progesterone in the adrenal glands, relative to ODM-208 ([1]; adrenal glands, fraction of the ODM-208 group) | secretion of testosterone, progesterone and corticosterone in tumors and adrenal glands (in words) [1] | concentration of testosterone in the tumors, relative to the ODM-208 group ([1]; tumors, fraction of the ODM-208 group) | secretion of progesterone in the adrenal glands (in words) ([1]; adrenal glands of mice, vs control group) | pIC50 (hERG channels)
COc1cc(CN2Cc3ccccc3C2)ccc1CCC1CCN(S(C)(=O)=O)CC1 [compound 53] | 1/4 | significantly inhibited | 1/8 |  | 
Cn1c(CN2Cc3ccccc3C2)c(F)cc(CCC2CCN(S(C)(=O)=O)CC2)c1=O [compound 72] |  | significantly inhibited |  | significant inhibitory effect | < 4.52
Cn1c(CN2Cc3ccccc3C2)c(F)cc(C=CC2CCN(C(=O)CC#N)CC2)c1=O [compound 112] |  |  |  |  | < 4.52
